Measured values published in patent publication US10961238B2, “Modulators of hedgehog (Hh) signaling pathway” (E-THERAPEUTICS PLC, priority 2016, dated 2021).
pIC50: −log10 of the molar value. Read-outs that look alike come from different tables or passages of the source.

Tests used:
[1] = test system: SMO L416F mutant cell line; assay: C3H10T1/2 cell differentiation assay in SMO L416F mutant cell line versus wild type; assay type: cell-based, mouse; settings: for Fold reduction in potency in SMO L416F mutant cell line: SMO L416F mutant cell line compared to the wild type, C3H10T1/2 cell differentiation assay
Text: FIG. 1 is a graph of the percent inhibition of C3H10T1/2 cell differentiation of vismodegib compared to compound of the invention (compound number 174), in wild type versus SMO L416F mutant cell line.
Loss of Potency in C3H10T1/2 Cell Differentiation Assay Associated with Presence of SMO L416F Mutation.
Table 3 below details the number of fold reduction in potency of a range of compounds of the invention when applied to the SMO L416F mutant cell line compared to the wild type. SMO mutation has been described in the literature (Pricl, Sabrina, et al.) as a key mutation causative of vismodegib resistance in the clinic by interfering with drug binding.

[2] = test system: C3H10T1/2 cells; assay: C3H assay: differentiation of C3H10T1/2 cells by mSHH, measurement of alkaline phosphatase; assay type: cell-based, mouse
[3] = target: T1, SMO (Homo sapiens, UniProt Q99835); assay: Smoothened (SMO) binding fluorescence polarisation assay (BODIPY-cyclopamine competition); settings: SMO binding FP assay versus C3H10T1/2 cellular assay
T1 construct: expressed in transfected cells; host or cells: HEK293
Description: Standard Protocol for Smoothened (SMO) Binding Fluorescence Polarisation Assay.
The assay measures the ability of the test compounds to compete with a fluorescently-labelled version of the known ligand, cyclopamine, for binding to SMO. The fluorescent tag used is BODIPY (boron dipyrromethene).
An aliquot of a membrane preparation from a SMO-over-expressing HEK293 cell line is diluted to protein concentration of 0.117 mg/ml in assay buffer (25 mM HEPES, 2 mM EDTA, 0.05% γ-globulin, 0.01% pluronic acid pH7.4, plus protease Inhibitor cocktail). 8.5 μl of the membrane suspension is added to each well of a black, low volume 384 well microtitre plate.
Test compounds are added in a seven point dilution range to the wells containing the membrane preparation. The final DMSO solvent concentration in the wells is maintained at 0.3%. 6.5 μl of a 6.9 nM BODIPY-cyclopamine solution is added to each of the wells (final assay concentration 3 nM).
The plate is sealed and stored in the dark at room temperature for 24 hours prior to measurement of the fluorescence polarisation signal on a Perkin Elmer Envision multi-label reader.
Table 4 below details the ratio of SMO binding compared to the potency in the C3H10T1/2 cellular assay. The small ratio between SMO binding and potency for vismodegib is considered to be reflective of the fact vismodegib acts mainly through inhibition of the SMO protein. The larger ratios for the compound of the invention are considered to be reflective of alternate actions outside of direct SMO inhibition.

[4] = Mus musculus, C3H 10T1/2, C3H10T1/2 cells stimulated with mSHH for 72 hours, alkaline phosphatase activity, read-out: IC50 Ranges

T1 sequence (Q99835 28-787): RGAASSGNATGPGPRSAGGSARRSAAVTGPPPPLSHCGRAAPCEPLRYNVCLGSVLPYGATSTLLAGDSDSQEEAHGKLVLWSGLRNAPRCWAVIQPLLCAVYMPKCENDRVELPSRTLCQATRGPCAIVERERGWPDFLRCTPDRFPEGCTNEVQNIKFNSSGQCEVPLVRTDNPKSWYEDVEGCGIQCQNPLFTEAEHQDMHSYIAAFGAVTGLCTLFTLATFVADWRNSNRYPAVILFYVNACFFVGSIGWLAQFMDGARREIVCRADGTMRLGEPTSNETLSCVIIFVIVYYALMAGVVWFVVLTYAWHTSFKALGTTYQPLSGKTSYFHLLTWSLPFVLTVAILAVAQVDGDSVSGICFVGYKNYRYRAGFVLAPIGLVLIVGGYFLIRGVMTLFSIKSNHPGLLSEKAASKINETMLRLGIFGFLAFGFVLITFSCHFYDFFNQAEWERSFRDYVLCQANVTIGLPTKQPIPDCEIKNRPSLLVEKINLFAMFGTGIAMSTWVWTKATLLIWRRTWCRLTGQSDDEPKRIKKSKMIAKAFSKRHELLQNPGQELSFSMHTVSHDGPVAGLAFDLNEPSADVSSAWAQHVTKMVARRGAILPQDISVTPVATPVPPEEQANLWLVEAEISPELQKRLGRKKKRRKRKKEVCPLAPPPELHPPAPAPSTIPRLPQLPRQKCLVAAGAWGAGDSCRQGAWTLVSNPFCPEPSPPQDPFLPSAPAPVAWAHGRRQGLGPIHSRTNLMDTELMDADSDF

| Compound | Fold reduction in potency in SMO L416F mutant cell line [1] | pIC50 [2, 4] | Ratio of potency in SMO binding assay to potency in C3H10T1/2 cellular assay [3] | pIC50 ([2]; Mus musculus, C3H 10T1/2, reference compounds run in the C3H assay, read-out: mean IC50) | percent inhibition of C3H10T1/2 cell differentiation ([1]; FIG. 1, compared to vismodegib, wild type versus SMO L416F mutant cell line) | pIC50 ([2]; C3H10T1/2 cells stimulated with mSHH for 72 hours, alkaline phosphatase activity, read-out: IC50 Ranges) |
| --- | --- | --- | --- | --- | --- | --- |
| O=C(OCC1CCC1)N1CC(S(=O)(=O)N2CCC(c3cn(C(=O)OCC4CCC4)c4ncccc34)CC2)C1 [Compound 154, cyclobutylmethyl 3-[1-[1-(cyclobutylmethoxycarbonyl)azetidin-3-yl]sulfonylpiper-idin-4-yl]pyrrolo[2,3-b] pyridine-1-carboxylate] | 28 | 7.00 to 8.00 | 66 |  |  |  |
| CC(C)C(CO)NC(=O)N1CC(S(=O)(=O)N2CCC(c3c[nH]c4ncccc34)CC2)C1 (racemic) [Compound 26, N-[1-(Hydroxymethyl)-2-methyl-propyl]-3-[[4-(1H-pyrrolo[2,3-b]pyridin-3-yl)-1-piperidyl]sulfonyl]azetidine-1-carboxamide] | 67 | 7.00 to 8.00 |  |  |  |  |
| CS(=O)(=O)c1ccc(C(=O)Nc2ccc(Cl)c(-c3ccccn3)c2)c(Cl)c1 [Vismodegib, reference compound] | 202 |  | 2.2 | 8.20 |  |  |
| O=C(OC1CCCCC1)N1CC(S(=O)(=O)N2CCC(c3c[nH]c4ncccc34)CC2)C1 [Compound 75, cyclohexyl 3-[4-(1H-pyrrolo[2,3-b]pyridin-3-yl)piperidin-1-yl]sulfonylaze-tidine-1-carboxylate] | 60 | 7.00 to 8.00 |  |  |  |  |
| Cc1ccnc2[nH]cc(C3CCN(S(=O)(=O)C4CN(C(=O)OC(C)(C)C)C4)CC3)c12 [Compound 223, tert-butyl 3-[4-(4-methyl-1H-pyrrolo[2,3-b]pyridin-3-yl)piperidin-1-yl]sulfonylaze-tidine-1-carboxylate] | 26 | 7.00 to 8.00 | 21 |  |  |  |
| CC(C)(C)OC(=O)N1CC(S(=O)(=O)N2CCC(c3cnc4occc4c3)CC2)C1 [Compound 124, tert-butyl 3-(4-furo[2,3-b]pyridin-5-ylpiperidin-1-yl)sulfonylaze-tidine-1-carboxylate] | 64 | 7.00 to 8.00 | 82 |  |  |  |
| O=C(OCC1CCCCC1)N1CC(S(=O)(=O)N2CCC(c3c[nH]c4ncccc34)CC2)C1 [Compound 168, cyclohexylmethyl 3-[4-(1H-pyrrolo[2,3-b]pyridin-3-yl)piperidin-1-yl]sulfonylaze-tidine-1-carboxylate] | 33 | 7.00 to 8.00 |  |  |  |  |
| CC(C)[C@@H](CO)NC(=O)N1CC(S(=O)(=O)N2CCC(c3c[nH]c4ncccc34)CC2)C1 [Compound 250, N-[(2S)-1-hydroxy-3-methylbutan-2-yl]-3-[4-(1H-pyrrolo[2,3-b]pyridin-3-yl)piperidin-1-yl]sulfonylaze-tidine-1-carboxamide] | 29 | 7.00 to 8.00 |  |  |  |  |
| CC(C)(C)OC(=O)N1CCCC(S(=O)(=O)N2CCC(c3c[nH]c4ncccc34)CC2)C1 (centres unmarked) [Compound 248, tert-butyl 3-[4-(1H-pyrrolo[2,3-b]pyridin-3-yl)piperidin-1-yl]sulfonylpiper-idine-1-carboxylate] | 10 | 6.00 to 7.00 |  |  |  |  |
| Cc1noc(C)c1OC(=O)N1CC(S(=O)(=O)N2CCC(c3c[nH]c4ncccc34)CC2)C1 [Compound 160, (3,5-dimethyl-1,2-oxazol-4-yl) 3-[4-(1H-pyrrolo[2,3-b]pyridin-3-yl)piperidin-1-yl]sulfonylaze-tidine-1-carboxylate] | 29 | > 8.00 |  |  |  |  |
| O=C(OCc1ccccc1C(F)(F)F)N1CC(S(=O)(=O)N2CCC(c3c[nH]c4ncccc34)CC2)C1 [Compound 216, [2-(trifluoromethyl)phenyl]methyl 3-[4-(1H-pyrrolo[2,3-b]pyridin-3-yl)piperidin-1-yl]sulfonylaze-tidine-1-carboxylate] | 47 | > 8.00 |  |  |  |  |
| COc1ccccc1OC(=O)N1CC(S(=O)(=O)N2CCC(c3c[nH]c4ncccc34)CC2)C1 [Compound 217, (2-methoxyphenyl) 3-[4-(1H-pyrrolo[2,3-b]pyridin-3-yl)piperidin-1-yl]sulfonylaze-tidine-1-carboxylate] | 34 | > 8.00 |  |  |  |  |
| CC(C)[C@H]1CC[C@H](C)C[C@@H]1OC(=O)N1CC(S(=O)(=O)N2CCC(c3c[nH]c4ncccc34)CC2)C1 [Compound 166, [(1S,2R,5S)-5-methyl-2-propan-2-ylcyclohexyl] 3-[4-(1H-pyrrolo[2,3-b]pyridin-3-yl)piperidin-1-yl]sulfonylaze-tidine-1-carboxylate] | 51 | > 8.00 |  |  |  |  |
| O=C(N1CCOCC1)N1CC(S(=O)(=O)N2CCC(c3c[nH]c4ncccc34)CC2)C1 [Compound 88, morpholin-4-yl-[3-[4-(1H-pyrrolo[2,3-b]pyridin-3-yl)piperidin-1-yl]sulfonylaze-tidin-1-yl]methanone] | 27 | 6.00 to 7.00 |  |  |  |  |
| CC(C)(C)CN1CC(S(=O)(=O)N2CCC(c3c[nH]c4ncccc34)CC2)C1 [Compound 143, 3-[1-[1-(2,2-Dimethylpropyl)azetidin-3-yl]sulfonyl-4-piperidyl]-1H-pyrrolo[2,3-b]pyridine] | 21 | 6.00 to 7.00 | >17 |  |  |  |
| Cc1noc(C)c1NC(=O)N1CC(S(=O)(=O)N2CCC(c3c[nH]c4ncccc34)CC2)C1 [Compound 120, N-(3,5-dimethyl-1,2-oxazol-4-yl)-3-[4-(1H-pyrrolo[2,3-b]pyridin-3-yl)piperidin-1-yl]sulfonylaze-tidine-1-carboxamide] | 38 | 7.00 to 8.00 |  |  |  |  |
| O=C(NCCc1cccs1)N1CC(S(=O)(=O)N2CCC(c3c[nH]c4ncccc34)CC2)C1 [Compound 84, 3-[4-(1H-pyrrolo[2,3-b]pyridin-3-yl)piperidin-1-yl]sulfonyl-N-(2-thiophen-2-ylethyl)azetidine-1-carboxamide] | 50 | 7.00 to 8.00 |  |  |  |  |
| CC(C)(C)NC(=S)N1CC(S(=O)(=O)N2CCC(c3c[nH]c4ncccc34)CC2)C1 [Compound 174, N-tert-butyl-3-[4-(1H-pyrrolo[2,3-b]pyridin-3-yl)piperidin-1-yl]sulfonylaze-tidine-1-carbothioamide] |  | 7.00 to 8.00 |  |  | a lower concentration of compound 174 is required to achieve the same percent inhibition of differentiation |  |
| CC(C)(C)OC(=O)N1CC(S(=O)(=O)N2CCC(c3csc4ncccc34)CC2)C1 [Compound 177, tert-butyl 3-(4-thieno [2,3-b]pyridin-3-ylpiperidin-1-yl)sulfonylaze-tidine-1-carboxylate] | 37 | 7.00 to 8.00 |  |  |  |  |
| O=C(NC12CC3CC(CC(C3)C1)C2)N1CC(S(=O)(=O)N2CCC(c3c[nH]c4ncccc34)CC2)C1 [Compound 171, N-(1-adamantyl)-3-[4-(1H-pyrrolo [2,3-b]pyridin-3-yl)piperidin-1-yl]sulfonylaze-tidine-1-carboxamide] | 38 |  |  |  |  | > 8.00 |
| CC(C)(C)CC(C)(C)NC(=O)N1CC(S(=O)(=O)N2CCC(c3c[nH]c4ncccc34)CC2)C1 [Compound 175, 3-[4-(1H-pyrrolo[2,3-b]pyridin-3-yl)piperidin-1-yl]sulfonyl-N-(2,4,4-trimethylpentan-2-yl)azetidine-1-carboxamide] | 40 | > 8.00 |  |  |  |  |
